Measurements from BindingDB's records for doi:10.7270/Q2B27SQ0 (Nmmlsc, 2008).
Structures can show the parent of a compound that is named as a salt.

Biological target: Apoptosis regulator Bcl-2 (Homo sapiens, UniProt P10415)
Assay: PubChem AID 950
[1] = inactive by the depositor's call

Chain of Apoptosis regulator Bcl-2 (P10415 whole entry): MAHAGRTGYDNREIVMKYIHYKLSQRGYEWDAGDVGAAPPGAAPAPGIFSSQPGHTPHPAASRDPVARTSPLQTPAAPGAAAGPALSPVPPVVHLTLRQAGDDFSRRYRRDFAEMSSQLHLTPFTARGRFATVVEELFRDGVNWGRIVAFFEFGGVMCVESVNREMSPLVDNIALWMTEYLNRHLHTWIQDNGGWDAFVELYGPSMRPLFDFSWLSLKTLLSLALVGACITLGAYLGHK

Structure (SMILES) | EC50 [µM] | EC50 [1] [µM]
CN1CCc2cccc3c2[C@@H]1Cc1ccc(O)c(O)c1-3 | 16.1 | –
CN1CCN(C2=C(Cl)C(=O)C(c3cnc(N4CCCCC4)s3)=C(Cl)C2=O)CC1 | – | 0.16
CCOC(=O)c1ccc(Nc2nc(C(=O)OCC)nc3ccccc23)cc1 | – | 1.51
CCN1C(=O)/C(=C/C=C2\C=CN(CC)c3ccccc32)SC1=S | – | 35.3
Cc1ccc(-c2ccc(/C=C/C(=O)c3ccccc3)o2)cc1 | – | 8.47
CCC(/C=C1\Sc2ccc(OC)cc2N1CCO)=C\c1sc2ccc(OC)cc2[n+]1CCO | 16.1 | –
COc1ccc(-n2c(=O)c3ccccc3c3ccccc3c2=O)c(OC)c1 | – | 13.4
Cc1nc2ncccn2c1-c1csc(Nc2ccc(O)cc2)n1 | 0.67 | –
N#Cc1cc(-c2ccccc2)nn1-c1ccccc1 | – | 39.6
CN(C)c1ncc(C2=C(Cl)C(=O)C(N3CCCC3)=C(Cl)C2=O)s1 | – | 0.21
c1ccc(C2=Nc3cccc4cccc(c34)N2)cc1 | – | 26.5
c1ccc(-c2nc(N3CCOCC3)[s+]n2-c2ccccc2)cc1 | 13.8 | –
Cc1ccc(C)c(/C=C/C(=O)c2ccccc(=O)c2O)c1 | – | 19.4
O=C(NC1=C(Nc2ccc(Cl)cc2)C(=O)c2ccccc2C1=O)c1ccccc1 | – | 17.9
O=C(Nc1ccc2nc(-c3ccco3)c(-c3ccco3)nc2c1)N1CCN(c2ccccn2)CC1 | – | 8.86
O=C(c1ccccc1)c1ccc2nc(-c3ccco3)c(-c3ccco3)nc2c1 | – | 16
CCOc1ccccc1CNc1ccc(O)cc1 | – | 3.63
Cc1ccc(C(=O)/C=C/c2ccc(-c3ccc(C)cc3)o2)cc1 [1-p-Tolyl-3-(5-p-tolyl-furan-2-yl)-propenone] | – | 3.08
O=C(NCc1ccccc1)c1ccc2nc(-c3ccco3)c(-c3ccco3)nc2c1 [2,3-bis(furan-2-yl)-N-(phenylmethyl)quinoxaline-6-carboxamide] | 7.44 | –
COc1ccc2nc(-c3ccco3)c(-c3ccco3)nc2c1 [2,3-di-2-furyl-6-methoxyquinoxaline] | – | 14.4
O=C(NCc1ccccn1)c1ccc2nc(-c3ccco3)c(-c3ccco3)nc2c1 [2,3-di-2-furyl-N-(pyridin-2-ylmethyl)quinoxaline-6-carboxamide] | – | 14.1
O=C(Nc1ccccc1)c1ccc2nc(-c3ccco3)c(-c3ccco3)nc2c1 [2,3-di-2-furyl-N-phenyl-6-quinoxalinecarboxamide] | – | 36.5
c1coc(C2=Nc3cccc4cccc(c34)N2)c1 [2-(2-furanyl)-1H-perimidine] | – | 9.76

Structure (SMILES) | EC50 [µM] | EC50 [1] [µM]
COc1ccc(CC(=O)Nc2ccc(-c3nc4cc(C)ccc4o3)c(O)c2)cc1OC [2-(3,4-dimethoxyphenyl)-N-[(4Z)-3-keto-4-(5-methyl-3H-1,3-benzoxazol-2-ylidene)cyclohexa-1,5-dien-1-yl]acetamide] | 10 | –
C=CCn1c(SCC(=O)Nc2ccc3c(c2)OCO3)nnc1-c1cc(Br)ccc1O [2-[[(5Z)-4-allyl-5-(3-bromo-6-keto-cyclohexa-2,4-dien-1-ylidene)-1H-1,2,4-triazol-3-yl]thio]-N-(1,3-benzodioxol-5-yl)acetamide] | 15.8 | –
O=C(/C=C/c1ccccc1Cl)c1ccccc(=O)c1O [3-[(E)-3-(2-chlorophenyl)prop-2-enoyl]-2-oxidanyl-cyclohepta-2,4,6-trien-1-one] | – | 15
Cc1cc(N)ccc1N1CCCC1 [3-methyl-4-(1-pyrrolidinyl)aniline;hydrochloride] | 13.7 | –
Cc1cc(-c2csc(N)n2)c(C)n1C [4-(1,2,5-trimethyl-3-pyrrolyl)-2-thiazolamine] | – | 46.3
Cc1nc2ncccn2c1-c1csc(Nc2ccccc2)n1 [4-(2-methyl-3-imidazo[1,2-a]pyrimidinyl)-N-phenyl-2-thiazolamine] | – | 8.93
CNc1ccc(Br)cc(C(=O)/C=C/c2cccc(OC)c2)c1=O [4-bromo-2-[3-(3-methoxyphenyl)acryloyl]-7-(methylamino)-2,4,6-cycloheptatrien-1-one] | – | 55
Cc1cc(C)nc(SCc2cc(=O)c(OC(=O)c3ccc(Cl)c([N+](=O)[O-])c3)co2)n1 [4-chloro-3-nitrobenzoic acid [6-[[(4,6-dimethyl-2-pyrimidinyl)thio]methyl]-4-oxo-3-pyranyl] ester] | – | 8.45
CN(C)c1ccc(C=C2C(=O)NC(=O)NC2=O)cc1[N+](=O)[O-] [5-[[4-(dimethylamino)-3-nitrophenyl]methylidene]-1,3-diazinane-2,4,6-trione] | – | 16.4
CCc1ccc(/C=C/C(=O)c2cc(Br)ccc(=O)c2O)cc1 [5-bromo-3-[(E)-3-(4-ethylphenyl)-1-oxoprop-2-enyl]-2-hydroxy-1-cyclohepta-2,4,6-trienone] | – | 76.4
COc1ccc(C2=Nn3c(nnc3-c3ccco3)SC2)cc1OC [6-(3,4-Dimethoxy-phenyl)-3-furan-2-yl-7H-[1,2,4]triazolo[3,4-b][1,3,4]thiadiazine] | – | 1.21
COc1cc(/C=C2\CC/C(=C\c3cc(OC)c(O)c(OC)c3)C2=O)cc(OC)c1O [(2E,5E)-2,5-bis[(4-hydroxy-3,5-dimethoxyphenyl)methylidene]cyclopentan-1-one] | 5.13 | –
CN(C)[C@@H]1C(=O)C(C(=O)NCN2CCCC2)C(=O)[C@@]2(O)C(=O)C3C(=O)c4c(O)cccc4[C@@](C)(O)C3CC12 (stereo partly drawn) [(2Z,4S,6S,12aS)-4-(dimethylamino)-6,10,11,12a-tetrahydroxy-2-[hydroxy-(1-pyrrolidinylmethylamino)methylidene]-6-methyl-4,4a,5,5a-tetrahydrotetracene-1,3,12-trione] | 23.7 | –
COc1cc(CN=Nc2nn3cnnc3c3ccccc23)ccc1O [(4E)-2-methoxy-4-[[2-([1,2,4]triazolo[3,4-a]phthalazin-6-yl)hydrazinyl]methylidene]cyclohexa-2,5-dien-1-one] | 8.47 | –
O=C1C(=Cc2ccco2)NC(=S)N1c1ccccc1 [(5E)-5-(furan-2-ylmethylidene)-3-phenyl-2-sulfanylideneimidazolidin-4-one] | – | 27.2
O=C1/C(=C\c2ccc(-c3ccccc3Cl)o2)SC(=S)N1CC1CCCO1 (configuration not stated) [(5E)-5-[[5-(2-chlorophenyl)furan-2-yl]methylidene]-3-(oxolan-2-ylmethyl)-2-sulfanylidene-1,3-thiazolidin-4-one] | 2.33 | –
Cc1ccc(-c2ccc(/C=C3\SC(N4CCOCC4)=NC3=O)o2)cc1 [(5Z)-5-[[5-(4-methylphenyl)-2-furanyl]methylidene]-2-(4-morpholinyl)-4-thiazolone] | – | 44.6
O=C(/C=C\c1ccc(-c2ccccc2)o1)c1ccccc1 [(Z)-1-phenyl-3-(5-phenyl-2-furanyl)-2-propen-1-one] | – | 34.9
CN1CCc2cccc3c2[C@H]1Cc1ccc(O)c(O)c1-3 [APOMORPHINE HYDROCHLORIDE] | 42.3 | –
COc1cc(C2Nc3cccc4cccc(c34)N2)ccc1OC(C)=O [Acetic acid 4-(2,3-dihydro-1H-perimidin-2-yl)-2-methoxy-phenyl ester] | – | 11.4
COC(=O)CSc1ncnc2c1sc1nc(-c3ccco3)c3c(c12)CC(C)(C)OC3 [MLS000039339] | – | 27.6
C/C(=C\c1ccco1)C1Nc2cccc3cccc(c23)N1 [MLS000055728] | – | 14.2
O=C1c2ccccc2-c2onc3ccc(NCc4ccco4)c1c23 [MLS000080234] | – | 37.8

Structure (SMILES) | EC50 [µM] | EC50 [1] [µM]
Cc1cc2n(c1)CCn1c(C)ccc1-2 [MLS000104384] | – | 15.9
CCOC(=O)C1CCN(C(=O)Nc2ccc3nc(-c4ccco4)c(-c4ccco4)nc3c2)CC1 [MLS000113285] | 6.65 | –
Clc1nc(NCc2cccnc2)nc(N2CCOCC2)n1 [MLS000121154] | – | 24.9
Clc1ccc2c(N=NCc3ccccc3Br)ccnc2c1 [MLS000336087] | 9.15 | –
O=[N+]([O-])c1ccc(N=NCc2ccc(O)c(O)c2O)c(S(=O)(=O)N2CCOCC2)c1 [MLS000336720] | 4.66 | –
Cc1ccc(NC2=C(NC(=O)c3ccccc3)C(=O)c3ccccc3C2=O)cc1Cl [MLS000392290] | – | 4.38
COc1ccc2c3c(cccc13)N(C)N=C2C [MLS000554700] | 2.01 | –
COCCCn1c(N)c(C(=O)Nc2sc3c(c2C(=O)OC)CCCC3)c2nc3ccccc3nc21 [MLS000595323] | – | 1.95
COc1cc2nc(=S)[nH]c(NCCc3ccc(S(N)(=O)=O)cc3)c2cc1OC [MLS000674601] | – | 0.54
Fc1ccc(C2=Nc3cccc4cccc(c34)N2)cc1 [MLS000687139] | – | 9.27
OCCN1CCN(CCCc2c3c(cc4c2CCC4)CCC3)CC1 [MLS000698424] | 17.9 | –
COc1ccc(/C=C/C(=O)c2cc(Br)ccc(=O)c2O)cc1 [MLS000702099] | – | 33.6
CCOC(=O)c1c(O)nc2ccc(Cl)c3c2c1-c1ccccc1C3=O [MLS000704595] | – | 7.65
COc1cccc2c(SCC(=O)NN=Cc3ccc(O)cc3O)cc(C)nc12 [N'-[(E)-(2-hydroxy-4-oxo-1-cyclohexa-2,5-dienylidene)methyl]-2-[(8-methoxy-2-methyl-4-quinolinyl)thio]acetohydrazide] | 24.1 | –
c1ccc(Nc2cccc(Nc3ccccc3)n2)cc1 [N,N'-diphenyl-2,6-pyridinediamine] | – | 2.79
O=C(Nc1ccc(N2CCOCC2)cc1)Nc1ccc2nc(-c3ccco3)c(-c3ccco3)nc2c1 [N-(2,3-di-2-furyl-6-quinoxalinyl)-N'-[4-(4-morpholinyl)phenyl]urea] | – | 8.89
CC(=O)c1ccc(NC(=O)c2ccc3nc(-c4ccco4)c(-c4ccco4)nc3c2)cc1 [N-(4-acetylphenyl)-2,3-di-2-furyl-6-quinoxalinecarboxamide] | 8.54 | –
Clc1nss/c1=N\c1ccc(Br)cc1 [N-(4-bromophenyl)-4-chloro-5-dithiazolimine] | – | 49.8
COc1ccc(CCNC(=O)c2ccc3nc(-c4ccco4)c(-c4ccco4)nc3c2)cc1OC [N-[2-(3,4-dimethoxyphenyl)ethyl]-2,3-di-2-furylquinoxaline-6-carboxamide] | – | 13.6
O=C(NC1=C(NC2CCS(=O)(=O)C2)C(=O)c2ccccc2C1=O)c1ccccc1 (configuration not stated) [N-[3-[(1,1-dioxo-3-thiolanyl)amino]-1,4-dioxo-2-naphthalenyl]benzamide] | – | 19.7
Cc1cccc(OCC(=O)NCC(=O)NN=Cc2cc(Br)ccc2OCc2ccccc2)c1 [N-[(5-bromanyl-2-phenylmethoxy-phenyl)methylideneamino]-2-[2-(3-methylphenoxy)ethanoylamino]ethanamide] | – | 5.73
